Measurements published in patent US9962427B2, “Treatment of right ventricular dysfunction due to pressure overload” (OTTAWA HOSPITAL RESEARCH INSTITUTE, priority 2016, dated 2018).
Blank lines part the entries; values can stand above or below the compound they belong to.

Tests used:
NFAT = NFAT luciferase reporter adenovirus (Nfat-AdV) in cardiomyocytes; format: cell-based; conditions: as early as 3 hours, up to 24 hours; PE 100 μM, PAC-1 25 μM
Description: (§1) FIGS. 6A, 6B, and 6C. Stimulation with hCT1 causes sustained activation of NF-κB and Stat3 with limited activation of Mef2, as well as limited Nfat activation; the latter two indices are distinct expression patterns from pathologic hypertrophic stimulation. FIG. 6A Primary neonatal cardiomyocytes were transfected with luciferase reporter plasmids (NF-κB or Mef2), as indicators of hypertrophic activity. Luciferase activity was measured after treatments for 24 hrs with: hCT1 (0.5 nM), PE (100 μM), or procaspase 3 activating compound 1, PAC-1 (25 μM) (left). Treatments at early timepoints (30 min, 1 hr, and 3 hr) were also conducted for hCT1 (right). FIG. 6B Primary neonatal cardiomyocytes were transfected with a luciferase reporter plasmid for Stat3. Luciferase activity was measured after treatments for 24 hrs with: hCT1 (0.5 nM), PE (100 μM), or procaspase 3 activating compound 1, PAC-1 (25 μM) (left) and at earlier time points (right). FIG. 6C Primary neonatal cardiomyocytes were infected with a luciferase-based Nfat reporter Adenovirus (Nfat-AdV). Luciferase activity was measured after treatments for 24 hrs with: hCT1 (0.5 nM), PE (100 μM), or procaspase 3 activating compound 1, PAC-1 (25 μM) (left) and at earlier time points (right)
Applicants tested this supposition by infecting cardiomyocytes with an NFAT luciferase reporter linked to an Adenovirus (AdV) backbone (FIG. 6C). Cardiomyocytes were infected at a […] (MOI) of 20 with Nfat-AdV for 24 hours prior to stimulation with hCT1 (0.5 nM), PE (100 μM), or procaspase 3 activating compound 1, PAC-1 (25 μM). As an initial positive control, co-infection of NFAT-AdV with activated Calcineurin-AdV (a phosphatase and potent activator of NFAT signalling) caused a significant increase in NFAT activity (n=4; *, P<0.05). […] Although the exact mechanism of inhibition is unknown, Applicant has shown CT-1 engaging a PI3K signalling pathway and it would be reasonable to postulate that phosphorylation of NFAT by CT-1/PI3K signalling would limit NFAT activity.

[1] = system: Vascular Endothelial Growth Factor—VEGF; assay: VEGF expression by immunofluorescence in primary cardiomyocytes; format: cell-based; conditions: 24 hours; hCT1 0.5 nM, PE 100 μM, PAC-1 25 μM
Description: FIGS. 8A and 8B. […] FIG. 8B Microarray analysis of primary cardiomyocytes stimulated with hCT1 (0.5 nM) for 24 hours.
Applicant explored the role of CT-1 as a pro-angiogenic factor in the adaptive hypertrophic response. Physiologic cardiac adaptive compensation is associated with an increase in capillary density, whereas pathologic response is characterized by a decline or no change at all. Importantly, the compensatory vascular growth/angiogenesis that occurs during physiologic adaptive compensation is permissive for the increased workload that accompanies physiologic adaptive compensation. Despite this adaptation, little information exists regarding the mechanisms that match the demand for angiogenesis to the beneficial form of myocardial growth. The rapid in vitro and in vivo adaptive compensation in response to CT-1 supports a hypothesis that the cardiomyocyte itself may act in a paracrine fashion, to signal and promote angiogenesis. To address this conjecture, Applicant examined whether CT-1 treated primary cardiomyocytes produced vascular endothelial growth factor (VEGF), an angiogenic factor known to be produced and secreted by cardiomyocytes. Primary cardiomyocytes were incubated with control serum-free media (Ctrl, SF media) or stimulated with hCT1 (0.5 nM), PE (100 μM), or PAC-1 (25 μM) for 24 hours. Immunofluorescence was used to detect α-actinin, Vascular Endothelial Growth Factor—VEGF, and nuclei. […] Based on these observations Applicant next conducted a comparative gene expression analysis of control (non-stimulated) versus CT-1 treated (0.5 nM, 24 hours) primary cardiomyocytes, using the Affymetrix Rat gene 2.0ST array.

STAT3 = STAT3 luciferase reporter in cardiomyocytes; format: cell-based; conditions: 30 minutes up to 24 hours; hCT1 0.5 nM, PE 100 μM, PAC-1 25 μM
Description: as §1
Moreover, it is reasonable to assume that CT-1 may moderate the activity of additional transcription factors, which further contribute to the adaptive compensation phenotype. As such, Applicants decided to test the hypothesis that STAT3 (Signal transducer and activator of transcription 3) dependent transcriptional activity is a specific determinant for CT-1 induced physiologic adaptive compensation. STAT3 phosphorylation and transcriptional activation is a response that is common to the Interleukin-6 cytokine family (of which CT-1 is a member), which is mediated through binding and activation of a JAK/gp130 (Janus kinase/[…]) receptor complex.

Mef2 = Mef2 luciferase reporter in primary neonatal cardiomyocytes; format: cell-based; conditions: hCT1 0.5 nM, PE 100 μM, PAC-1 25 μM
Description: as §1
The signaling pathways that CT-1 engages in mediating physiologic adaptive compensatory remodeling were examined. The applicants predicted that cardiomyocyte adaptive remodeling mediated by CT-1 results (in part) from the induction of a specific transcriptional program, which is distinct from that of pathologic hypertrophic response. To address this hypothesis, the applicants tested the activity of two well-known transcription factor families that have been linked to both physiologic and pathologic cardiomyocyte growth, the Mef2 (Kolodziejczyk et al. 1999 Curr Biol. 9, 1203-1206; Kim et al. 2008, J Clin Invest. 118, 124-132.) and the NF-κB family (Gordon et al. 2011, Circ Res. 108, 1122-1132). Primary neonatal cardiomyocytes were transfected with luciferase reporter plasmids (NF-κB and Mef2) to be used as a read out of transcriptional activity. Luciferase activity was determined after treatments for 24 hrs with: hCT1 (0.5 nM), PE (100 μM), or procaspase 3 activating compound 1, PAC-1 (25 μM). […] This pattern of transcription factor activation was distinct from that induced by PE and by the caspase 3 specific activating compound PAC-1.

rats = assay: M-mode ECHO after 2 weeks of osmotic minipump delivery in rats; format: in vivo, rat; conditions: ISO 1 mg/kg/day
Description: FIGS. 3A, 3B, and 3C. […] Arrows (in upper panels) point to myocardial wall (RVLW). Dotted lines (in lower panels) show inner ventricle chambers.
CT-1 was tested in vivo to determine whether its administration would induce a myocardial adaptive remodeling characteristic of physiologic compensation (FIGS. 3A, 3B, and 3C). Osmotic minipumps containing PBS control (Ctrl) or hCT1 (6 μg/kg/hr) or Isoproterenol (ISO, 1 mg/kg/day) were implanted subcutaneously in rats. ISO is a beta-adrenergic receptor agonist and continuous infusion with ISO in rats is known to induce pathological cardiac hypertrophy and cardiomyocyte damage (in both the right and left ventricles) which progresses to heart failure (Morisco et al (2001) J Mol Cell Cardiol 33:561-573 and Grimm et al (1998) Cardiovascular Research 37:91-100). After 2 weeks of treatment, M-mode ECHO analysis was used to assess myocardial structure/function (FIG. 3A). In this model, an increased right ventricle lateral wall (RVLW) thickness indicates the presence of myocardiocytes growth, and an increased ratio of the right to left ventricle internal diameters (RVID/LVID) is an indicator of pathologic hypertrophy. An increased RVLW thickness but constant or reduced RVID:LVID ratio is an indicator of adaptive compensatory RV remodeling. Both hCT1 and ISO induced a significant increase in RVLW thickness (12% and 32% fold increase, respectively) compared to control rats (n=3; * and **, P<0.05). […] An in vivo growth reversal analysis was also conducted. Following a 2 week delivery of CT-1 protein (6 μg/kg/hr) or PE (10 mg/kg/day) as the pathologic control in this case, animals were then assessed for cardiac structure/function at a 6 week follow-on period. […] Collectively, these studies support the contention that CT-1 elicits a reversible physiologic cardiac adaptive compensation.

cardiomyocytes = system: cardiomyocytes
Description: FIG. 7B Quantitation of cell viability analysis as shown in (A). FIG. 7C Quantification of PI cell viability FACS analysis following a 24 hrs treatment of cardiomyocytes with H2O2 in the presence or absence of hCT1. Pre-treatment with PI3K inhibitor (LY294002, 50 μM) before H2O2 was also tested.
Cardiomyocytes were treated with control serum-free media or with H2O2 (300 μM, 1 hr) to induce cell death in the presence or absence of hCT1 (0.5 nM). After 24 hrs, cells were incubated with the cell viability marker Propidium Iodide (PI) (1 μg/mL) and analyzed by FACS (Ex: 535 nm, Em: 617 nm) for viable cells; i.e. cells inside the gated region of the side scatter (SS) versus PI plot (FIG. 7A). […] The PI3K pathway is a critical feature of physiological cardiac adaptive compensation and is a key protective feature distinguishing it from pathological adaptive compensation. Therefore, cardiomyocytes were pre-treated with a PI3K inhibitor (LY294002, 50 μM) before CT-1/H2O2 treatment.

STAT3 activation (STAT3): only minimal (if any) activation
Mef2 activation after 24 hrs (Mef2): significant activation of Mef2
SMILES: C=CCc1cccc(/C=N/NC(=O)CN2CCN(Cc3ccccc3)CC2)c1O [PAC-1, procaspase 3 activating compound 1, reference compound]
NFAT activity compared to baseline levels (NFAT): significant increase of NFAT activity
VEGF expression (immunofluorescence) [1]: less VEGF expression

SMILES: CC(C)NCC(O)c1ccc(O)c(O)c1 (stereo not drawn) [ISO, Isoproterenol, reference compound]
increase in the RVID/LVID ratio (rats): 24%
increase in RVLW thickness compared to control rats (rats; hCT1 6 μg/kg/hr, subcutaneous minipump): 32 % fold increase

SMILES: OO [H2O2, hydrogen peroxide]
cardiomyocyte viability decreased vs. control (cardiomyocytes; 1 h, 300 μM): 24%
decrease in viability vs. control (cardiomyocytes; 24 h): 70%

SMILES: O=c1cc(N2CCOCC2)oc2c(-c3ccccc3)cccc12 [LY294002]
decrease in viability compared to cells treated only with hCT1/H2O2 (cardiomyocytes; pre-treatment with LY294002 50 μM before CT-1/H2O2 (FIG. 7C)): 46%
